Values of other authors in patent US7666658B1, “Antibody catalysis of enantio- and diastereo-selective aldol reactions” (The Scripps Research Institute, priority 1999, dated 2010).

Details: retro-aldolization of fructose-1,6-bisphosphate, reported at 4° C.

## muscle aldolase: nature's muscle aldolase, natural enzyme cleaving fructose-1,6-bisphosphate
  efficiency: 4.9×10^4 s^−1M^−1
